Read-outs that look alike come from different tables or passages of the source.
Columns and labels:
human TLR8 = biological target: T1, human TLR8 (Homo sapiens, UniProt Q9NR97); experiment: Inhibition of human TLR8 in human monocytes (TNF-alpha / IL-1 beta ELISA); assay type: cell-based; conditions: for IC50: human monocytes, agonist ORN8L 100 μg/mL, 24 hours; for inhibits TLR8-dependent responses (in words): summary statement of the description
T1 construct: endogenous in cells; host or cells: primary human monocytes (CD14 microbeads) from buffy coats of healthy donors
T1 sequence (Q9NR97 27-1041): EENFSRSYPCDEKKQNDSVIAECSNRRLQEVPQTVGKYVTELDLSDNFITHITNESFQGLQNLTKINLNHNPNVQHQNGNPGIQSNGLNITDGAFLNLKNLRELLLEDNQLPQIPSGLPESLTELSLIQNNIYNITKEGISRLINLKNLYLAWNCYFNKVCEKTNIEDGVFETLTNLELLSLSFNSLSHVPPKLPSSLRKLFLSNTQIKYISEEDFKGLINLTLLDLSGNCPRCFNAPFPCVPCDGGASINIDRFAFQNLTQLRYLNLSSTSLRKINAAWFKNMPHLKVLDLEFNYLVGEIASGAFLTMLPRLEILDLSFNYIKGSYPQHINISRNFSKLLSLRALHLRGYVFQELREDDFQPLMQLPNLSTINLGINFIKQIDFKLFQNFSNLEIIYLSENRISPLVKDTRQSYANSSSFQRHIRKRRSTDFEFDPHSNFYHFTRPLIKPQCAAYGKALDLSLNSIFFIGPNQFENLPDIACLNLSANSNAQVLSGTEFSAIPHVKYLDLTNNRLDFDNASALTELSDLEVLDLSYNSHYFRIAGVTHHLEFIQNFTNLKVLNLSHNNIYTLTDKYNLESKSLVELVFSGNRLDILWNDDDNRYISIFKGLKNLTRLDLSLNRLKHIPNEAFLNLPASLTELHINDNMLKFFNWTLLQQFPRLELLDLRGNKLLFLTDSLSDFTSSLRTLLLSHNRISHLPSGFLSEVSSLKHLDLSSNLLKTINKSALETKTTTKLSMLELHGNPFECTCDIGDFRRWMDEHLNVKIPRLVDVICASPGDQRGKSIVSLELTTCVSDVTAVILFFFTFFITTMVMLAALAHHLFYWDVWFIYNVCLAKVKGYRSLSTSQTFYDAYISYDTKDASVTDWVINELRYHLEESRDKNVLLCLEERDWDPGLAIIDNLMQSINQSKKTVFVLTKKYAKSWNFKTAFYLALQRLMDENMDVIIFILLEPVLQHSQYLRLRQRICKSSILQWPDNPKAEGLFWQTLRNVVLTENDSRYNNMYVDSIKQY
Excerpt: Example B2—Inhibition of Human TLR8 in Human Monocytes
When placed in cell culture, engagement of TLR8 with an agonist leads to expression and release of cytokines into the media.
Buffy coats from anonymized, healthy human donors. CD14 microbeads (Milteny Cat. No. 130-050-201). TLR8 agonist, (5′-M2UGCUGCUUGUG-/glycerol/-GUGUUCGUCGUM2-5′ with M2=C6-linker, ORN8L, RNA oligonucleotide (Chem Genes Corp.). Human TNF-alpha ELISA kit (Mabtech Cat. No. 3510-1H-20). Human interleukin (IL)-1 beta ELISA kit (Mabtech Cat. No. 3415-1H-20).
Following isolation of monocytes from buffy coats, human monocytes were plated into 96 well plates at approximately 200,000 cells per well. Test compounds were serially diluted and added to the plates. Immediately after adding test compounds, the TLR8 agonist (ORN8L, RNA oligonucleotide) was added to a final concentration of 100 μg/mL. Cells were incubated for 24 hours at 37° C. A portion of the media supernatant was analyzed for the presence of TNF-alpha and/or IL-1 beta using ELISA kits. The amount of TNF-alpha or IL-1 beta produced is a reflection of the amount of TLR8-dependent receptor activity. The IC50 values (the concentration at which 50% of the TLR8-dependent receptor activity is reduced) were calculated based upon the TLR8-dependent receptor activity over a range of different test compound concentrations.

human TLR9 = biological target: T2, human TLR9 (Homo sapiens, UniProt Q9NR96); experiment: Inhibition of human TLR9 in human B cells (IL-6 ELISA); assay type: cell-based; conditions: for IC50: human B cells, agonist 1018 ISS 1 μM, IL-6 readout, 48 hours, range about 0.01 to 10 μM, read-out: Human TLR9 IC50; for inhibits TLR9-dependent responses (in words): summary statement of the description
T2 construct: endogenous in cells; host or cells: primary human B cells (CD19 microbeads) from buffy coats of healthy donors
T2 sequence (Q9NR96 26-1032): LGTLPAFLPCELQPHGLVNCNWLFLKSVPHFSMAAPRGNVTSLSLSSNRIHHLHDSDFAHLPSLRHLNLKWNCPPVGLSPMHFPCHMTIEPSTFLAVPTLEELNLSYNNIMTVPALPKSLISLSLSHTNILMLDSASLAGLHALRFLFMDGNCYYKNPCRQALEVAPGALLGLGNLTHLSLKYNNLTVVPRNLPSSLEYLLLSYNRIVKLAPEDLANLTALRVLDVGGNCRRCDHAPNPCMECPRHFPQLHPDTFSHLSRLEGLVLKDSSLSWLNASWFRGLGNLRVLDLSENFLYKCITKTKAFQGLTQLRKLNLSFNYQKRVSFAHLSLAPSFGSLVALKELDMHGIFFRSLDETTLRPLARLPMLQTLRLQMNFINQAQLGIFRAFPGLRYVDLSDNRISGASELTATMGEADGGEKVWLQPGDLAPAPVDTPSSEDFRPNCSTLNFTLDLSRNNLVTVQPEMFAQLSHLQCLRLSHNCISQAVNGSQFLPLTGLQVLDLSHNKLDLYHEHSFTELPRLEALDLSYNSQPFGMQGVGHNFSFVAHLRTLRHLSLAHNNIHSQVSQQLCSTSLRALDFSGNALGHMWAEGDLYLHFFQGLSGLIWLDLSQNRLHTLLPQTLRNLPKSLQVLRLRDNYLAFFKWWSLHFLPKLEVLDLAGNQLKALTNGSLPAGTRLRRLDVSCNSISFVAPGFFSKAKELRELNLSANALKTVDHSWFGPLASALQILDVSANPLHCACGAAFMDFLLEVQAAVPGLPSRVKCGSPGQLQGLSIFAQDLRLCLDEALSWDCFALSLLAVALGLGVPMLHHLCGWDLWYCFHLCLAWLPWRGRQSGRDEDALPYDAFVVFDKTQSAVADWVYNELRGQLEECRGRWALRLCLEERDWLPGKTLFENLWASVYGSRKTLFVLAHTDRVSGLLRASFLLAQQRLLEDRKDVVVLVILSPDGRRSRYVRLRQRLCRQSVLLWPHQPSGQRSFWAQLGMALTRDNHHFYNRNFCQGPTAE
Experimental: Example B3—Inhibition of Human TLR9 in Human B Cells
When placed in cell culture, engagement of TLR9 with an agonist leads to expression and release of cytokines into the media.
Buffy coats from anonymized, healthy human donors. CD19 microbeads (Miltenyi Cat. No. 130-050-301). TLR9 agonist, 1018 ISS, CpG-containing DNA oligonucleotide. Human interleukin (IL)-6 ELISA kit (Mabtech Cat. No. 3460-1H-20).
Following isolation of […] from buffy coats, human B cells were plated into 96 well plates at approximately 300,000 cells per well. Test compounds were serially diluted and added to the plates. Test compounds were typically assayed using a concentration range from about 0.01 μM to about 10 μM. Certain test compounds were further assayed in an expanded dilution series using a compound concentration range from about 0.001 μM to about 30 μM. Immediately after adding test compounds, the TLR9 agonist (1018 ISS, CpG-containing DNA oligonucleotide) was added to a final concentration of 1 μM. Cells were incubated for 48 hours at 37° C. A portion of the media supernatant was analyzed for the presence of IL-6 using ELISA kits. The amount of IL-6 produced is a reflection of the amount of TLR9-dependent receptor activity. The IC50 values (the concentration at which 50% of the TLR9-dependent receptor activity is reduced) were calculated based upon the TLR9-dependent receptor activity over a range of different test compound concentrations.

[1] = IL-1 beta readout, read-out: Human TLR8 IC50 IL-1b
[2] = TNF-alpha readout, read-out: Human TLR8 IC50 TNF-a

| SMILES | IC50 (human TLR8; [1]) [nM] | IC50 (human TLR8; [2]) [nM] | IC50 (human TLR9) [nM] | inhibits TLR9-dependent responses (in words) (human TLR9) | inhibits TLR8-dependent responses (in words) (human TLR8) |
| --- | --- | --- | --- | --- | --- |
| Cc1nnc(N2CCC(C(=O)NCCCN3CCN(C)CC3)CC2)c2nn(-c3ccccc3)c(C)c12 [31x, 1-(3,4-dimethyl-2-phenyl-2H-pyrazolo[3,4-d]pyridazin-7-yl)-N-(3-(4-methylpiperazin-1-yl)propyl)piperidine-4-carboxamide] | > 10000 | > 10000 | 211 |  |  |
| Cc1ccc(-n2nc3c(N4CCCC(C(=O)NCCN(C)C)C4)nnc(C)c3c2C)cc1 (stereo not shown) [45x, 1-(3,4-dimethyl-2-(p-tolyl)-2H-pyrazolo[3,4-d]pyridazin-7-yl)-N-(2-(dimethylamino)ethyl)piperidine-3-carboxamide] |  | ≥ 20000 | 9 |  |  |
| CCN1CCN(C(=O)C2CCN(c3nnc(C)c4c(C)n(-c5ccc(C)cc5)nc34)CC2)CC1 [51x, (1-(3,4-dimethyl-2-(p-tolyl)-2H-pyrazolo[3,4-d]pyridazin-7-yl)piperidin-4-yl)(4-ethylpiperazin-1-yl)methanone] | 330 | 230 | 6 | inhibit | inhibit |
| COc1ccc(-n2nc3c(N4CCCC(C(=O)NCCN(C)C)C4)nnc(C)c3c2C)cc1 (stereo not shown) [54x, N-(2-(dimethylamino)ethyl)-1-(2-(4-methoxyphenyl)-3,4-dimethyl-2H-pyrazolo[3,4-d]pyridazin-7-yl)piperidine-3-carboxamide] | 740 | 290 | 4 | inhibit | inhibit |
| Cc1nnc(N2CCC(C(=O)N3CCN(C)CC3)CC2)c2nn(-c3ccccc3)c(C)c12 [59x, (1-(3,4-dimethyl-2-phenyl-2H-pyrazolo[3,4-d]pyridazin-7-yl)piperidin-4-yl)(4-methylpiperazin-1-yl)methanone] | 2110 | 2040 | 59 |  |  |
| CCCN1CCN(C(=O)C2CCCN(c3nnc(C)c4c(C)n(-c5ccccc5)nc34)C2)CC1 (stereo not shown) [63x, (1-(3,4-dimethyl-2-phenyl-2H-pyrazolo[3,4-d]pyridazin-7-yl)piperidin-3-yl)(4-propylpiperazin-1-yl)methanone] | 1010 | 1120 | 18 |  |  |
| Cc1ccc(-n2nc3c(N4CCC(C(=O)NCC(C)(C)CN)CC4)nnc(C)c3c2C)cc1 [Compound No. 7, N-(3-amino-2,2-dimethylpropyl)-1-(3,4-dimethyl-2-(p-tolyl)-2H-pyrazolo[3,4-d]pyridazin-7-yl)piperidine-4-carboxamide] | > 10000 | > 10000 | 360 |  |  |

Results, then the compound that gave them:

| IC50 (human TLR8; [1]) [nM] | IC50 (human TLR8; [2]) [nM] | IC50 (human TLR9) [nM] | inhibits TLR9-dependent responses (in words) (human TLR9) | inhibits TLR8-dependent responses (in words) (human TLR8) | SMILES |
| --- | --- | --- | --- | --- | --- |
| 4540 | 4850 | 41 | inhibit |  | CCCCN(CC)CCNC(=O)C1CCN(c2nnc(C)c3c(C)n(-c4ccccc4)nc23)CC1 [25x, N-(2-(butyl(ethyl)amino)ethyl)-1-(3,4-dimethyl-2-phenyl-2H-pyrazolo[3,4-d]pyridazin-7-yl)piperidine-4-carboxamide] |
| > 10000 | > 10000 | 341 |  |  | Cc1nnc(N2CCC(C(=O)NCCN3CCOCC3)CC2)c2nn(-c3ccccc3)c(C)c12 [32x, 1-(3,4-dimethyl-2-phenyl-2H-pyrazolo[3,4-d]pyridazin-7-yl)-N-(2-morpholinoethyl)piperidine-4-carboxamide] |
| > 10000 | > 10000 | 70 |  |  | CCN1CCCC1CNC(=O)C1CCN(c2nnc(C)c3c(C)n(-c4ccccc4)nc23)CC1 (stereo not shown) [33x, 1-(3,4-dimethyl-2-phenyl-2H-pyrazolo[3,4-d]pyridazin-7-yl)-N-((1-ethylpyrrolidin-2-yl)methyl)piperidine-4-carboxamide] |
| 3940 | 3560 | 29 |  |  | Cc1nnc(N2CCCC(C(=O)NCCCN3CCOCC3)C2)c2nn(-c3ccccc3)c(C)c12 (stereo not shown) [49x, 1-(3,4-dimethyl-2-phenyl-2H-pyrazolo[3,4-d]pyridazin-7-yl)-N-(3-morpholinopropyl)piperidine-3-carboxamide] |
| 660 | 900 | 13 |  |  | CCCN1CCN(C(=O)C2CCN(c3nnc(C)c4c(C)n(-c5ccccc5)nc34)CC2)CC1 [64x, (1-(3,4-dimethyl-2-phenyl-2H-pyrazolo[3,4-d]pyridazin-7-yl)piperidin-4-yl)(4-propylpiperazin-1-yl)methanone] |
| > 10000 | > 10000 | 379 |  |  | Cc1ccc(-n2nc3c(N4CCC(C(=O)NCCCN5CCC5)CC4)nnc(C)c3c2C)cc1 [Compound No. 11, N-(3-(azetidin-1-yl)propyl)-1-(3,4-dimethyl-2-(p-tolyl)-2H-pyrazolo[3,4-d]pyridazin-7-yl)piperidine-4-carboxamide] |

— patent publication US11370794B2, “Toll-like receptor antagonist compounds and methods of use” (Dynavax Technologies Corporation, priority 2016, dated 2022)
